Laboratory results: patent US10131652B2, “Pyrimidinyloxy benzene derivatives as herbicides” (E. I. DU PONT DE NEMOURS AND COMPANY, priority 2014, dated 2018)

Experiments:
Type in all cases: in vivo
[1] = test system: oilseed rape (Brassica napus); assay: Test D pre-/postemergence plant response
Method in brief: (§1)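 Visual injury scoring (0–100) at 13 to 15 days in greenhouse. Preemergence sprays on seeded loam/sand; postemergence sprays on 1–4 leaf plants.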

[2] = test system: galium (catchweed bedstraw, Galium aparine); assay: Test D pre-/postemergence plant response
Method in brief: as §1

[3] = test system: winter wheat (Triticum aestivum); assay: Test D pre-/postemergence plant response
Method in brief: as §1

[4] = test system: lambsquarters (Chenopodium album); assay: Test D pre-/postemergence plant response
Method in brief: as §1

corn (Zea mays) = assay: Test D pre-/postemergence plant response
Method in brief: as §1

[5] = test system: Italian ryegrass (Lolium multiflorum); assay: Test D pre-/postemergence plant response
Method in brief: as §1

[6] = test system: velvetleaf (Abutilon theophrasti); assay: Test D pre-/postemergence plant response
Method in brief: as §1

[7] = test system: ducksalad (Heteranthera limosa); assay: Test C flooded paddy test plant response; details: Flood, 250 g ai/ha; scale of 0 to 100 where 0 is no effect and 100 is complete control; 13 to 15 days
Method in brief: (§2)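 Flooded-pot format, 3 cm water over soil maintained for the test duration; test compounds dispensed into the water at the 2-leaf stage. Greenhouse holding 13 to 15 days. Plants evaluated visually relative to untreated controls, 0 meaning no effect and 100 complete control.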

[8] = test system: small-flower umbrella sedge (Cyperus difformis); assay: Test C flooded paddy test plant response; details: Flood, 250 g ai/ha; scale of 0 to 100 where 0 is no effect and 100 is complete control; 13 to 15 days
Method in brief: as §2

[9] = test system: barnyardgrass (Echinochloa crus-galli); assay: Test C flooded paddy test plant response; details: Flood, 250 g ai/ha; scale of 0 to 100 where 0 is no effect and 100 is complete control; 13 to 15 days
Method in brief: as §2

rice (Oryza sativa) = assay: Test C flooded paddy test plant response; details: Flood, 250 g ai/ha; scale of 0 to 100 where 0 is no effect and 100 is complete control; 13 to 15 days
Method in brief: as §2

kochia (Kochia scoparia) = assay: Test B pre-/postemergence plant response
Method in brief: (§3)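 Seeds in loam–sand blend given preemergence soil spray; separately, plants at one- to two-leaf stage (2–10 cm) sprayed postemergence, compounds in non-phytotoxic solvent with surfactant. Injury rated visually versus untreated controls after ~10 days in greenhouse, 0 (no effect) to 100 (complete control).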

[10] = test system: Italian ryegrass (Lolium multiflorum); assay: Test B pre-/postemergence plant response
Method in brief: as §3

[11] = test system: ragweed (common ragweed, Ambrosia elatior); assay: Test B pre-/postemergence plant response
Method in brief: as §3

[12] = Postemergence, 31 g ai/ha, scale 0 to 100 (0 no effect, 100 complete control)
[13] = Postemergence, 62 g ai/ha, scale 0 to 100, 0 no effect, 100 complete control
[14] = Postemergence, 125 g ai/ha, scale 0 to 100, 0 no effect, 100 complete control
[15] = 31 g ai/ha, Preemergence, 0 to 100 scale where 0 is no effect and 100 is complete control
[16] = 125 g ai/ha, postemergence, 0 to 100 scale, 0 no effect, 100 complete control
[17] = Postemergence, 31 g ai/ha, 0 to 100 scale (0 no effect, 100 complete control)
[18] = Preemergence, 125 g ai/ha, 0 to 100 scale (0 no effect, 100 complete control)
[19] = Preemergence, 16 g ai/ha, scale 0 to 100 (0 no effect, 100 complete control)
[20] = Preemergence, 31 g ai/ha, scale 0 to 100 (0 no effect, 100 complete control)
[21] = Preemergence, 62 g ai/ha, scale 0 to 100 (0 no effect, 100 complete control)
[22] = Postemergence, 500 g ai/ha, 0 to 100 scale (0 no effect, 100 complete control)
[23] = Preemergence, 500 g ai/ha, 0 to 100 scale where 0 is no effect and 100 is complete control

SMILES: CC(F)(F)c1cc(-c2ccccc2Oc2ncc(Cl)cn2)on1 [Compound 178]
- Plant response rating (scale 0 to 100), Oilseed Rape ([1]; Postemergence, 16 g ai/ha): 35
- Oilseed Rape plant response rating [1, 12]: 80
- Oilseed Rape plant response rating [1, 13]: 80
- Plant response rating, Oilseed Rape [1, 14]: 95
- Plant response rating (scale 0 to 100), Galium ([2]; Postemergence, 16 g ai/ha): 75
- Galium plant response rating [2, 12]: 80
- Plant response rating, Galium [2, 13]: 98
- Plant response rating, Galium [2, 14]: 85
- Plant response rating (scale 0 to 100), Wheat ([3]; Postemergence, 16 g ai/ha): 0
- Wheat plant response rating [3, 12]: 5
- Wheat plant response rating [3, 13]: 5
- Plant response rating, Wheat [3, 14]: 10
- Plant response rating (scale 0 to 100), Lambsquarters ([4]; Postemergence, 16 g ai/ha): 25
- Lambsquarters plant response rating [4, 12]: 70
- Lambsquarters plant response rating [4, 13]: 75
- Plant response rating, Lambsquarters [4, 14]: 90
- Plant response rating (scale 0 to 100), Corn (corn (Zea mays); Postemergence, 16 g ai/ha): 0
- Corn plant response rating (corn (Zea mays); [12]): 5
- Plant response rating, Corn (corn (Zea mays); [13]): 5
- Plant response rating, Corn (corn (Zea mays); [14]): 10
- Plant response rating (scale 0 to 100), Ryegrass, Italian ([5]; Postemergence, 16 g ai/ha): 0
- Ryegrass, Italian plant response rating [5, 12]: 0
- Ryegrass, Italian plant response rating [5, 13]: 5
- Plant response rating, Ryegrass, Italian [5, 14]: 5
- Plant response rating (scale 0 to 100), Velvetleaf ([6]; Postemergence, 16 g ai/ha): 60
- Velvetleaf plant response rating [6, 12]: 40
- Velvetleaf plant response rating [6, 13]: 60
- Plant response rating, Velvetleaf [6, 14]: 75
- Ducksalad plant response rating [7]: 90
- Sedge, Umbrella plant response rating [8]: 85
- Barnyardgrass plant response rating [9]: 40
- Rice plant response rating (rice (Oryza sativa)): 0
- Plant response rating, Kochia (kochia (Kochia scoparia); [15]): 10
- Plant response rating, Kochia (kochia (Kochia scoparia); [16]): 100
- Plant response rating, Kochia (kochia (Kochia scoparia); [17]): 80
- Kochia plant response rating (kochia (Kochia scoparia); [18]): 20
- Plant response rating, Ryegrass, Italian [10, 15]: 0
- Plant response rating, Ryegrass, Italian [10, 16]: 30
- Plant response rating, Ryegrass, Italian [10, 17]: 0
- Ryegrass, Italian plant response rating [10, 18]: 10
- Plant response rating, Ragweed [11, 15]: 0
- Plant response rating, Ragweed [11, 16]: 10
- Plant response rating, Ragweed [11, 17]: 10
- Ragweed plant response rating [11, 18]: 0

SMILES: FC(F)c1cc(-c2c(Cl)cccc2Oc2ncc(Cl)cn2)no1 [Compound 179]
- Plant response rating (scale 0 to 100), Oilseed Rape ([1]; Postemergence, 16 g ai/ha): 40
- Oilseed Rape plant response rating [1, 12]: 75
- Oilseed Rape plant response rating [1, 13]: 85
- Plant response rating, Oilseed Rape [1, 14]: 100
- Plant response rating (scale 0 to 100), Oilseed Rape ([1]; Preemergence, 125 g ai/ha): 100
- Plant response rating, Oilseed Rape [1, 19]: 30
- Plant response rating, Oilseed Rape [1, 20]: 95
- Plant response rating (scale 0 to 100), Galium ([2]; Postemergence, 16 g ai/ha): 70
- Galium plant response rating [2, 12]: 80
- Plant response rating, Galium [2, 13]: 70
- Plant response rating, Galium [2, 14]: 75
- Plant response rating (scale 0 to 100), Galium ([2]; Preemergence, 125 g ai/ha): 98
- Plant response rating, Galium [2, 19]: 90
- Plant response rating, Galium [2, 20]: 90
- Plant response rating, Galium [2, 21]: 90
- Plant response rating (scale 0 to 100), Wheat ([3]; Postemergence, 16 g ai/ha): 5
- Wheat plant response rating [3, 12]: 10
- Wheat plant response rating [3, 13]: 30
- Plant response rating, Wheat [3, 14]: 35
- Plant response rating (scale 0 to 100), Wheat ([3]; Preemergence, 125 g ai/ha): 35
- Plant response rating, Wheat [3, 19]: 0
- Plant response rating, Wheat [3, 20]: 0
- Plant response rating, Wheat [3, 21]: 0
- Plant response rating (scale 0 to 100), Lambsquarters ([4]; Postemergence, 16 g ai/ha): 70
- Lambsquarters plant response rating [4, 12]: 75
- Lambsquarters plant response rating [4, 13]: 75
- Plant response rating, Lambsquarters [4, 14]: 100
- Plant response rating (scale 0 to 100), Lambsquarters ([4]; Preemergence, 125 g ai/ha): 100
- Plant response rating, Lambsquarters [4, 19]: 75
- Plant response rating, Lambsquarters [4, 20]: 100
- Plant response rating, Lambsquarters [4, 21]: 100
- Plant response rating (scale 0 to 100), Corn (corn (Zea mays); Postemergence, 16 g ai/ha): 5
- Corn plant response rating (corn (Zea mays); [12]): 10
- Plant response rating, Corn (corn (Zea mays); [13]): 10
- Plant response rating, Corn (corn (Zea mays); [14]): 15
- Plant response rating (scale 0 to 100), Corn (corn (Zea mays); Preemergence, 125 g ai/ha): 5
- Plant response rating, Corn (corn (Zea mays); [19]): 0
- Plant response rating, Corn (corn (Zea mays); [20]): 0
- Plant response rating, Corn (corn (Zea mays); [21]): 0
- Plant response rating (scale 0 to 100), Ryegrass, Italian ([5]; Postemergence, 16 g ai/ha): 0
- Ryegrass, Italian plant response rating [5, 12]: 5
- Ryegrass, Italian plant response rating [5, 13]: 5
- Plant response rating, Ryegrass, Italian [5, 14]: 20
- Plant response rating (scale 0 to 100), Ryegrass, Italian ([5]; Preemergence, 125 g ai/ha): 80
- Plant response rating, Ryegrass, Italian [5, 19]: 0
- Plant response rating, Ryegrass, Italian [5, 20]: 5
- Plant response rating, Ryegrass, Italian [5, 21]: 15
- Plant response rating (scale 0 to 100), Velvetleaf ([6]; Postemergence, 16 g ai/ha): 15
- Velvetleaf plant response rating [6, 12]: 20
- Velvetleaf plant response rating [6, 13]: 30
- Plant response rating, Velvetleaf [6, 14]: 70
- Plant response rating (scale 0 to 100), Velvetleaf ([6]; Preemergence, 125 g ai/ha): 100
- Plant response rating, Velvetleaf [6, 19]: 15
- Plant response rating, Velvetleaf [6, 20]: 65
- Plant response rating, Velvetleaf [6, 21]: 85
- Ducksalad plant response rating [7]: 80
- Sedge, Umbrella plant response rating [8]: 80
- Barnyardgrass plant response rating [9]: 0
- Rice plant response rating (rice (Oryza sativa)): 40
- Plant response rating, Kochia (kochia (Kochia scoparia); [16]): 90
- Plant response rating, Kochia (kochia (Kochia scoparia); [22]): 100
- Kochia plant response rating (kochia (Kochia scoparia); [18]): 100
- Plant response rating, Kochia (kochia (Kochia scoparia); [23]): 100
- Plant response rating, Ryegrass, Italian [10, 16]: 90
- Plant response rating, Ryegrass, Italian [10, 22]: 100
- Ryegrass, Italian plant response rating [10, 18]: 20
- Plant response rating, Ryegrass, Italian [10, 23]: 40
- Plant response rating, Ragweed [11, 16]: 10
- Plant response rating, Ragweed [11, 22]: 30
- Ragweed plant response rating [11, 18]: 10
- Plant response rating, Ragweed [11, 23]: 40
